According to patent publication US5021435A, “Certain pyridyl-thiazolidin-4-one having anti-ulcer activity” (Sumitomo Pharmaceuticals Company, Limited, priority 1988, dated 1991):
Converted amounts (≈) assume the structure as drawn. Where two headings read alike, the source gives them in different places.

Experiments:
[1] = system: water-immersion and restraint stress induced gastric ulcer; test: Antiulcer test: water-immersion and restraint stress induced gastric ulcer model in rats; type: in vivo, Sprague-Dawley strain male rats; conditions: for inhibition in vivo at 100 mg/kg / inhibition in vivo at 50 mg/kg / inhibition in vivo at 30 mg/kg: Rattus norvegicus, po, 17 h, read-out: Effect (inhibitory percentage of ulcer formation, judgement); for inhibition in vivo at 100 mg/kg: 100 mg/kg oral; for inhibition of stress-induced ulcer (in words): discussion statement; for Test on anti-ulceration (ulcer caused by stress), Test (1): 100 mg/kg P.O.
Description: Sprague-Dawley strain male rats (body weight: 200-250 g) fasted for 24 hours (with free access of water) were used for the test. (1) Antiulcer test Anticular effect of the compound was examined by means of water-immersion and restraint stress induced gastric ulcer model in rats. The ulcer experiment was performed in accordance with the method of Takagi and Okabe referred to hereinafter. Rats were immobilized in a restraint cage. The animals were then immersed vertically to the level of the xiphoid process in water bath (23° C.) for 17 hr and killed by deep ether anesthesia. The stomach of each rat was removed and inflated by injecting 10 ml of 1% formalin to fix the inner and outer layer of gastric wall. Subsequently, the stomach was incised along the greater curveture and the length of ulcers in glandular portion was measured. The sum of the length (mm) of each ulcer was used as an ulcer index. Test compound was suspended in 0.5% methylcellulose solution and was orally administered at a volume of 5 ml/kg to the rat 30 minutes prior to stress loading. To the control group was administered vehicle alone at the same volume. Inhibitory percentage of ulcer formation of the compound was calculated from the following formula. [formula]

PAF-induced ulcer [2] = test: Test on PAF-induced ulcer; type: in vivo, Sprague-Dawley strain male rats; conditions: for Test on inhibition of PAF-induced ulcer, Test (3): rat, 100 mg/kg P.O. 30 minutes before PAF, effective = statistically significant vs control
Description: (§1) Sprague-Dawley strain male rats (body weight: 200-250 g) fasted for 24 hours (with free access of water) were used for the test.
(3) Test on PAF-induced ulcer
Inhibitory effect of the compound on PAF-induced ulcer was examined. PAF-induced ulcer in rat was caused by intravenous administration of 10 μg/kg of PAF. One hour after PAF administration, rat was killed under deep ether anesthesia and stomach was removed. The stomach was inflated and fixed by injecting 10 ml of 1% formalin solution and then cut open along greater curvature. Areas (mm^2) of the ulcerated portions were measured and sum of them was taken as ulcer-index. Test compound was suspended in a 0.5% methylcellulose solution and orally administered at a volume of 5 ml/kg 30 minutes before the administration of PAF. Vehicle alone was administered to control rat at the same volume with test group. With reference to the effect of the compound to inhibit ulceration, results of treated group and those of control group were compared and those which have a statistical significance was judged to be effective.

[3] = system: PAF-induced platelet aggregation; test: Anti-PAF test in vitro (inhibitory action on PAF-induced platelet aggregation, PRP); type: cell-based, rabbit (male Japanese white rabbits); conditions: Oryctolagus cuniculus, rabbit PRP
Description: The inhibition of PAF-induced platelet aggregation was examined by using a platelet-rich plasma (PRP) of rabbit according to the method of Mustard et al. [J. F. Mustard et al., J. Lab. Blin. Med., 64, 548 (1964)], which is an improved method of Born [G.V.R. Born, J. Physiol., London, 162, 67 (1962) ]. That is, 80-100 ml of blood per animal was collected from carotoid arteries of conscious male Japanese white rabbits into a polyethylene vessel containing 1/10 the volume of a 3.8% sodium citrate solution. A portion (about 3 ml) of the collected blood was centrifuged at a high speed (11,000 rpm) for 60 seconds to give a platelet-poor plasma (PPP) as supernatant. The remainder of the blood was centrifuged at a low speed (1000 rpm) for 10 minutes to give a platelet-rich plasma (PRP) as supernatant.
The degree of platelet aggregation was determined by nephelometry with an aggregometer (Hematracer, Niko Biosciene Co.) while stirring the PRP at 1000 rpm at 37° C. The degree of platelet aggregation was expressed in terms of the light transmittance (%), the value of PRP being taken as 0% and the value of […]. A portion (0.2 ml) of the PRP was placed into a glass cuvette containing a silicone-coated stirring iron bar, and 2 μl of dimethylsulfoxide was added. After 2 minutes, PAF dissolved in physiological saline containing 0.25% BSA was added to give a final PAF concentration of […], and the maximum aggregation was determined. To measure the inhibitory activity of test compounds on the platelet aggregation induced by PAF, 2 μl of a dimethylsulfoxide solution of each test compound was added in place of dimethylsulfoxide. The inhibitory percentage by the test compound of PAF-induced platelet aggregation was calculated according to the following equation and the value of IC50 was determined. [formula]

[4] = system: peripherally stimulated gastric acid secretion (histamine); test: Gastric acid secretion stimulated peripherally by histamine; type: in vivo, Sprague-Dawley strain male rats; conditions: rat, 30 mg/kg into duodenum 2 hours before stimulant; histamine 10 mg/kg s.c.
Description: as §1
(§2) (2) Test on central acting inhibitory effect of gastric acid secretion
(§3) Whether the antisecretory effect of the compound is based on central action or not was judged according to mode of antisecretory action of the compound to centrally stimulated gastric acid secretion and peripherally stimulated gastric acid secretion. […]
(§4) We determined the site of action (central or peripheral) of the compound by the result from above examination. […]
(§5) Gastric acid was collected every 20 min. by flushing the gastric lumen with 5 ml saline. The acid content of each sample was determined by titration of 0.02 N-NaOH.
(§6) Peripheral stimulation of gastric acid secretion was carried out by subcutaneous administration of 10 mg/kg of histamine or 1 mg/kg of bethanechol. […] Inhibitory percentage of acid secretion of the compound was calculated from the following formula. […]

[5] = system: centrally stimulated gastric acid secretion (baclofen); test: Central acting inhibitory effect of gastric acid secretion: baclofen-stimulated (central); type: in vivo, Sprague-Dawley strain male rats; conditions: rat, 30 mg/kg into duodenum 2 hours before stimulant; baclofen 2 mg/kg s.c.
Description: as §1, §2, §3, §4, §5, §6

[6] = system: peripherally stimulated gastric acid secretion (bethanechol); test: Gastric acid secretion stimulated peripherally by bethanechol; type: in vivo, Sprague-Dawley strain male rats; conditions: rat, 30 mg/kg into duodenum 2 hours before stimulant; bethanechol 1 mg/kg s.c.
Description: as §1, §2, §3, §4, §5, §6

PAF-induced ulcer [7] = conditions: cited from earlier work
[8] = rat, 30 minutes prior to stress
[9] = rat, 50 mg/kg oral, 30 minutes prior to stress

CN1C(=O)[C@H](c2ccc(F)cc2)S[C@@H]1c1cccnc1 (relative stereo) [Example 221]
inhibition in vivo at 100 mg/kg [1, 8]: > 80%

CN1C(=O)[C@H](c2ccc(C(F)(F)F)cc2)S[C@@H]1c1cccnc1 (relative stereo) [Example 246]
inhibition in vivo at 100 mg/kg [1, 8]: 60 to 80%

COc1cc([C@H]2CC[C@H](c3cc(OC)c(OC)c(OC)c3)O2)cc(OC)c1OC (relative stereo) [Example L-652731, trans2,5-bis(3,4,5-trimethoxyphenyl)tetrahydrofuran, reference compound]
inhibition of stress-induced ulcer (in words) [1]: cannot be inhibited
Test on anti-ulceration (ulcer caused by stress), Test (1) ([1]; rat): Ineffective
inhibition of PAF-induced ulcer (in words) (PAF-induced ulcer [2]; discussion statement): remarkably inhibited
Test on inhibition of PAF-induced ulcer, Test (3) (PAF-induced ulcer [2]): Effective
IC50 [3]: 0.2 µg/mL (≈ 0.494 µM)

CN1C(=O)C(c2ccc(Cl)cc2)SC1c1cccnc1 (single isomer, unassigned) [2 (Isomer II), 5-(4-Chlorophenyl)-3-methyl-2-(3-pyridyl)-thiazolidin-4-one]
Inhibitory percentage of acid secretion (judgement), stimulant histamine [4]: - (Less than 40%.)
inhibition in vivo at 50 mg/kg [1, 9]: > 80%
Inhibitory percentage of acid secretion (judgement), stimulant baclofen [5]: +++ (Not less than 80%.)
Inhibitory percentage of acid secretion (judgement), stimulant bethanechol [6]: - (Less than 40%.)

CN1C(=O)C(c2ccc(Cl)cc2)[S+]([O-])C1c1cccnc1 (single isomer, unassigned) [Example 30, 5-(4-chlorophenyl)-3-methyl-2-(3-pyridyl)-1-oxo-thiazolidin-4-one]
inhibition in vivo at 50 mg/kg [1, 9]: 40 to 60%

CN1C(=O)C(c2ccc(Cl)cc2)[S+]([O-])C1c1cccnc1 (single isomer, unassigned) [Example 31, 5-(4-chlorophenyl)-3-methyl-2-(3-pyridyl)-1-oxo-thiazolidin-4-one]
Effect (inhibitory percentage of ulcer formation, judgement) ([1]; rat, 50 mg/kg oral, 30 minutes prior to stress, 50 mg/kg): ++ (Not less than 60% and less than 80%.)

CN1C(=O)[C@@H](c2ccc(Cl)cc2)S[C@H]1c1cccnc1 (single isomer, unassigned) [Example 33, (+)-cis-5-(4-chlorophenyl)-3-methyl-2-(3-pyridyl)thiazolidin-4-one]
inhibition in vivo at 30 mg/kg ([1]; rat, 30 mg/kg oral, 30 minutes prior to stress): > 80%

CN1C(=O)[C@@H](c2ccc(Cl)cc2)S[C@H]1c1cccnc1 (single isomer, unassigned) [Example 34, (-)-cis-5-(4-chlorophenyl)-3-methyl-2-(3-pyridyl)thiazolidin-4-one]
inhibition in vivo at 100 mg/kg [1, 8]: 60 to 80%

CN/C(=N/CCSCc1nc[nH]c1C)NC#N [Cimetidine, reference compound]
inhibition in vivo at 30 mg/kg [1]: 60 to 80%
inhibition of stress-induced ulcer (in words) [1]: can be inhibited
Test on anti-ulceration (ulcer caused by stress), Test (1) ([1]; rat): Effective
inhibition of PAF-induced ulcer (in words) (PAF-induced ulcer [7]; discussion statement, Table 5 cites Nature 319, 54-56 (1986)): cannot be inhibited
Test on inhibition of PAF-induced ulcer (PAF-induced ulcer [7]; table head 100 mg/kg P.O., (*) Nature 319, 54-56 (1986)): Ineffective

CN1C(=O)C(c2ccc(Cl)cc2)SC1c1cccnc1 (stereo not drawn) [Example 1, 5-(4-chlorophenyl)-3-methyl-2-(3-pyridyl)thiazolidin-4-one]
inhibition in vivo at 50 mg/kg [1, 9]: 60 to 80%
Test on anti-ulceration (ulcer caused by stress), Test (1) ([1]; rat): Effective
Test on inhibition of PAF-induced ulcer, Test (3) (PAF-induced ulcer [2]): Effective
IC50 [3]: 5.8 µg/mL (≈ 19 µM)

CN1C(=O)C(c2ccc(F)cc2)SC1c1cccnc1 (stereo not drawn) [Example 42]
inhibition in vivo at 50 mg/kg [1, 9]: > 80%
Test on anti-ulceration (ulcer caused by stress), Test (1) ([1]; rat): Effective
Test on inhibition of PAF-induced ulcer, Test (3) (PAF-induced ulcer [2]): Effective
IC50 [3]: 4 µg/mL (≈ 13.9 µM)

CN1C(=O)C(c2ccc(Cl)cc2)SC1c1ccncc1 (stereo not drawn) [Example 46]
inhibition in vivo at 50 mg/kg [1, 9]: 60 to 80%

COc1ccc(C2SC(c3cccnc3)N(C)C2=O)cc1 (stereo not drawn) [Example 48]
inhibition in vivo at 50 mg/kg [1, 9]: 40 to 60%

CN1C(=O)C(c2ccccc2)SC1c1cccnc1 (stereo not drawn) [Example 52]
inhibition in vivo at 50 mg/kg [1, 9]: 40 to 60%

O=C1NC(c2cccnc2)SC1c1ccc(Cl)cc1 (stereo not drawn) [Example 178]
inhibition in vivo at 100 mg/kg [1, 8]: 40 to 60%

CN1C(=O)C(c2ccccc2F)SC1c1cccnc1 (stereo not drawn) [Example 198]
inhibition in vivo at 100 mg/kg [1, 8]: > 80%

CN1C(=O)C(c2ccccc2F)[S+]([O-])C1c1cccnc1 (stereo not drawn) [Example 199]
inhibition in vivo at 100 mg/kg [1, 8]: > 80%

COc1ccc(C2NC(=O)C(C)S2)cc1OC (stereo not drawn) [Mezolidon, 2-(3,4-dimethoxyphenyl)-5-methylthiazolidin-4-one, reference compound]
inhibition in vivo at 100 mg/kg [1, 8]: < 40%
effect by the test method employed in the present invention ([1]; statement in words): nearly ineffective
